Data on one sequence can be found in patent US20250197864A1, “LNCRNA TRANSCRIPTS IN MELANOMAGENESIS” (The Regents of the University of California, priority 2021, published 2025).

The subject of data set [1] is H1299 lung cancer cell line. The data set is described as follows: Cell viability assay (ATP quantitation). The class given is cell-based. The settings on record: 50 nM, 5 days, vs non-targeting control. The gist of the method:
(§1)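 Luminescence readout of cellular ATP, taken 3 days post-transfection for synergy experiments or 5 days for ASO alone. Oligonucleotides (esiRNA, siRNA, ASO GapmeRs) were delivered at 50 nM final unless noted, via Lipofectamine 3000, optionally combined with MEKi.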

Data set [2] concerns H2228 lung cancer cell line. Briefly: Cell viability assay (ATP quantitation). The settings on record: 50 nM, 5 days, vs non-targeting control. The class given is cell-based. The gist of the method: as §1
Data set [3] concerns H82 lung cancer cell line. Briefly: Cell viability assay (ATP quantitation). In kind it is cell-based. As to conditions: 50 nM, 5 days, vs non-targeting control. Put shortly:
as §1

For data set [4], the system named is Sk-Mel-5 melanoma cell line. Briefly: Cell viability assay (ATP quantitation). As to conditions: 50 nM, 5 days, vs non-targeting control. The class given is cell-based. The gist of the method:
as §1

Another data set deals with AV4 melanoma cell line. Briefly: Cell viability assay (ATP quantitation). In kind it is cell-based. As to conditions: 50 nM, 5 days, vs non-targeting control. The gist of the method: as §1
In data set [5] the test system is U20S osteosarcoma cell line. The data set is described as follows: Cell viability assay (ATP quantitation). In kind it is cell-based. As to conditions: 50 nM, 5 days, vs non-targeting control. Put shortly:
as §1

Data set [6] concerns HCT116 colon carcinoma cell line. Briefly: Cell viability assay (ATP quantitation). As to conditions: 50 nM, 5 days, vs non-targeting control. In kind it is cell-based. Put shortly: as §1
Data set [7] concerns Sk-N-AS Neuroblastoma cell line. The data set is described as follows: Cell viability assay (ATP quantitation). The settings on record: 50 nM, 5 days, vs non-targeting control. In kind it is cell-based. The gist of the method:
as §1

The subject of data set [8] is LS174 colon carcinoma cell line. Briefly: Cell viability assay (ATP quantitation). In kind it is cell-based. As to conditions: 50 nM, 5 days, vs non-targeting control. The gist of the method: as §1
Data set [9] concerns SW1271 lung cancer cell line. Briefly: Cell viability assay (ATP quantitation). In kind it is cell-based. As to conditions: 50 nM, 5 days, vs non-targeting control. Put shortly: as §1
The subject of data set [10] is U87-MG Glioblastoma cell line. Briefly: Cell viability assay (ATP quantitation). The settings on record: 50 nM, 5 days, vs non-targeting control. The class given is cell-based. Put shortly:
as §1

Data set [11] has as its system MaMel30 melanoma cell line. The data set is described as follows: Cell viability assay (ATP quantitation). In kind it is cell-based. As to conditions: 50 nM, 5 days, vs non-targeting control. The gist of the method:
as §1

Data set [12] relates to Hs940.T melanoma cell line. The data set is described as follows: Cell viability assay (ATP quantitation). The class given is cell-based. The settings on record: 50 nM, 5 days, vs non-targeting control. Put shortly: as §1
Data set [13] relates to WM3060 melanoma cell line. Briefly: Cell viability assay (ATP quantitation). As to conditions: 50 nM, 5 days, vs non-targeting control. The class given is cell-based. Put shortly:
as §1

Data set [14] relates to A-172 Glioblastoma cell line. Briefly: Cell viability assay (ATP quantitation). The class given is cell-based. The settings on record: 50 nM, 5 days, vs non-targeting control. Put shortly:
as §1

The subject of data set [15] is U138-MG Glioblastoma cell line. Briefly: Cell viability assay (ATP quantitation). The class given is cell-based. The settings on record: 50 nM, 5 days, vs non-targeting control. The gist of the method:
as §1

Data set [16] relates to T98G Glioblastoma cell line. Briefly: Cell viability assay (ATP quantitation). The class given is cell-based. The settings on record: 50 nM, 5 days, vs non-targeting control. The gist of the method: as §1
Data set [17] concerns H929 multiple myeloma cell line. The data set is described as follows: Cell viability assay (ATP quantitation). In kind it is cell-based. The settings on record: 50 nM, 5 days, vs non-targeting control. The gist of the method:
as §1

Data set [18] relates to SW480 colon carcinoma cell line. Briefly: Cell viability assay (ATP quantitation). The class given is cell-based. As to conditions: 50 nM, 5 days, vs non-targeting control. Put shortly: as §1
Another data set has as its system D04 cells. The data set is described as follows: Repetition of drug treatment in surviving D04 cells (drug resistance test). In kind it is cell-based, human. The settings on record: TRASH-ASO 50 nM or MEKi 15 nM (or 20 nM), recovery in drug free media, five days (120 hrs). The method, then: Dependent on cell doubling time, 0.7-2×10^^3 cells were seeded in 96 well plates. 1 day after seeding cells were incubated in media with oligonucleotide concentration and/or MEKi and transfection reagent. 3 (synergy experiments) or 5 (solely ASO) days after transfection Total luminescence was measured on the SynergyHT plate reader (BioTek) using Gen5 software.
Rescuing cells that survived initial TRASH-ASO (SEQ ID NO:15) and MEKi (trametinib) treatment and providing the rescued cells with a phase of regrowth in drug free media, was followed by repetition of the preceding drug treatment. […] Incubation time was 120 hrs, n=3. (FIG. 5d).

For the sequence “GACTGGAGATAATTAA (gapmer, pattern not given here) [SEQ ID NO: 15, GapmeR ASO targeting AC004540.4 (TRASH), exon region of both isoforms; used for in vitro experiments]”, the cell viability decrease result (in data set [1]; in [2]; in data set [3]; in data set [4]; in the data set with AV4 melanoma cell line; in data set [5]) was “significant cell viability decrease” throughout. For the same sequence, the cell viability decrease result in data set [6], in [7], in data set [8], in [9], in data set [10] and in data set [11] was “significant cell viability decrease” throughout. Besides, the cell viability decrease result in [12], in data set [13], in [14], in data set [15], in data set [16] and in data set [17] was “significant cell viability decrease” each time. Besides, the cell viability decrease entry in data set [18] is recorded as “significant cell viability decrease”. Further, the “cell-growth reduction on repetition of the preceding drug treatment in surviving cells” value is on record as “increased vulnerability” in the data set with D04 cells (n=3, listed as SEQ ID NO:15) and “significantly increased (p=0.004) cell-growth reduction” with D04 cells (n=3, listed as TRASH-ASO).
